Results on 23 compounds are retold here after patent publication US9365562B2, “1,3 substituted azetidine PDE10 inhibitors” (Merck Sharp & Dohme Corp., priority 2011, dated 2016).

Sequence of human PDE10A2 (Q9Y233 267-1055): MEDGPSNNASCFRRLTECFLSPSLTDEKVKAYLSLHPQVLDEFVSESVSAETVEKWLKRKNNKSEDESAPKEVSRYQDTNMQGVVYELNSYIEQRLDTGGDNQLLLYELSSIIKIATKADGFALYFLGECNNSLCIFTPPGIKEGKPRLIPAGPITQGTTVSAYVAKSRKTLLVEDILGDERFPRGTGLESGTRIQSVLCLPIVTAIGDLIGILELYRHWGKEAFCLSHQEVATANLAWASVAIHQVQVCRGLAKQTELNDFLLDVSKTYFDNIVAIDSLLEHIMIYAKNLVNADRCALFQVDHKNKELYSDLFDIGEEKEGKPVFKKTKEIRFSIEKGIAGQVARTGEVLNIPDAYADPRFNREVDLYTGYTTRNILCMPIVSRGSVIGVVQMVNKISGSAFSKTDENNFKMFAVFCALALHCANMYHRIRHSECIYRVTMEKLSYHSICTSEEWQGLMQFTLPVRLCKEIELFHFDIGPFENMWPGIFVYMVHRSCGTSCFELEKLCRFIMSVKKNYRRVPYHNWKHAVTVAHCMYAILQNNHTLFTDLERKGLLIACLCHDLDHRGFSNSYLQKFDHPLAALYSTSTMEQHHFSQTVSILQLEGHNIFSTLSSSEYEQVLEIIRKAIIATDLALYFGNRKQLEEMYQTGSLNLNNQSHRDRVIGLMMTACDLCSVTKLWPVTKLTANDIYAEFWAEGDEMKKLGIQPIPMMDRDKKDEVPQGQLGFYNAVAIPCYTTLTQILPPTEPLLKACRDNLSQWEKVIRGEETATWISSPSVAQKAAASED

This experiment addresses human PDE10A2 (Homo sapiens (Human), UniProt Q9Y233). In words: PDE10 fluorescence polarization (IMAP FP) inhibition assay. It counts as biochemical. The conditions noted are these: apparent inhibition constant, FAM-labeled cAMP substrate 50 nM, room temperature. Here is the method: The activity of the compounds in accordance with the present invention as PDE10 inhibitors may be readily determined without undue experimentation using a fluorescence polarization (FP) methodology that is well known in the art (Huang, W., et al., J. Biomol Screen, 2002, 7: 215).
In a typical experiment the PDE10 inhibitory activity of the compounds of the present invention was determined in accordance with the following experimental method. PDE10A2 was amplified from human fetal brain cDNA (Clontech, Mountain View, Calif.) using a forward primer corresponding to nucleotides 56-77 of human PDE10A2 (Accession No. AF127480, Genbank Identifier 4894716), containing a Kozak consensus sequence, and a reverse primer corresponding to nucleotides 2406-2413 of human PDE10A2 (Accession No. AF127480, Genbank Identifier 4894716). Amplification with Easy-A polymerase (Stratagene, La Jolla, Calif.) was 95° C. for 2 minutes followed by thirty three cycles of 95° C. for 40 seconds, 55° C. for 30 seconds, and 72° C. for 2 minutes 48 seconds. Final extension was 72° C. for 7 minutes. The PCR product was TA cloned into pcDNA3.2-TOPO (Invitrogen, Carlsbad, Calif.) according to standard protocol. AD293 cells with 70-80% confluency were transiently transfected with human PDE10A2/pcDNA3.2-TOPO using Lipofectamine 2000 according to manufacturer specifications (Invitrogen, Carlsbad, Calif.). Cells were harvested 48 hours post-transfection and lysed by sonication (setting 3, 10×5 sec pulses) in a buffer containing 20 mM HEPES, 1 mM EDTA and protease inhibitor cocktail (Roche). Lysate was collected by centrifugation at 75,000×g for 20 minutes. Supernatant containing the cytoplasmic fraction was used for evaluation of PDE10A2 activity. The fluorescence polarization assay for cyclic nucleotide phosphodiesterases was performed using an IMAP® FP kit supplied by Molecular Devices, Sunnyvale, Calif. (product # R8139). IMAP® technology has been applied previously to phosphodiesterase assays (Huang, W., et al., J. Biomol Screen, 2002, 7: 215). Assays were performed at room temperature in 384-well microtiter plates with an incubation volume of 20.2 μL. Solutions of test compounds were prepared in DMSO and serially diluted with DMSO to yield 8 μL of each of 10 solutions differing by 3-fold in concentration, at 32 serial dilutions per plate. 100% inhibition is determined using a known PDE10 inhibitor, which can be any compound that is present at 5,000 times its Ki value in the assay described as follows, such as papaverine (see Siuciak, et al. Neuropharmacology (2006) 51:386-396; Becker, et al. Behav Brain Res (2008) 186(2):155-60; Threlfell, et al., J Pharmacol Exp Ther (2009) 328(3):785-795), 2-{4-[pyridin-4-yl-1-(2,2,2-trifluoroethyl)-1H-pyrazol-3-yl]phenoxymethyl}quinoline succinic acid or 2-[4-(1-methyl-4-pyridin-4-yl-1H-pyrazol-3-yl)-phenoxymethyl]quinoline succinic acid (see Schmidt, et al. J Pharmacol Exp Ther (2008) 325:681-690; Threlfell, et al., J Pharmacol Exp Ther (2009) 328(3): 785-795). 0% of inhibition is determined by using DMSO (1% final concentrations). A Labcyte Echo 555 (Labcyte, Sunnyvale, Calif.) is used to dispense […] from each well of the titration plate to the 384 well assay plate. A solution of enzyme (1/7000 dilution from aliquots; sufficient to produce 20% substrate conversion) and a separate solution of FAM-labeled cAMP PDE from Molecular Devices (product # R7506), at a final concentration of 50 nM are made in the assay buffer (10 mM Tris HCl, pH 7.2, 10 mM MgCl2, 0.05% NaN3 0.01% Tween-20, and 1 mM DTT). The enzyme is added to the assay plates by the addition of 10 μL of enzyme solution to each well, shaken to mix and incubated at room temperature for 60 minutes. The substrate is then added to the assay plates by the addition of 10 μL of substrate solution to each well, shaken to mix, and incubated at room temperature for 60 minutes. […]
A general note: In fluorescence polarisation assays a small probe gives low polarisation when free and higher when bound to something large.
As for `Cc1nc(-c2ccccc2C(=O)O)cc(N2CC(c3nc4ccccc4n3C)C2)n1` [Example 93, 2-(2-methyl-6-(3-(1-methyl-1H-benzo[d]imidazol-2-yl)azetidin-1-yl)pyrimidin-4-yl)benzoic acid], the Ki stood at 19 nM.
Take `Cc1nc(-c2cccnc2)cc(N2CC(c3nc4ccccc4n3C)C2)n1` [Example 81, 1-methyl-2-(1-(2-methyl-6-(pyridin-3-yl)pyrimidin-4-yl)azetidin-3-yl)-1H-benzo[d]imidazole]: the Ki was found to be 76 nM.
Regarding `Cc1nc(N2CC(c3nc4ccccc4n3C)C2)cc(-n2nc(C)nc2C[C@H](C)O)n1` [Example 40, (S)-1-(3-methyl-1-(2-methyl-6-(3-(1-methyl-1H-benzo[d]imidazol-2-yl)azetidin-1-yl)pyrimidin-4-yl)-1H-1,2,4-triazol-5-yl)propan-2-ol], the Ki came to 2 nM.
Then `CCc1nc(C)nn1-c1cc(N2CC(c3nc4ccccc4n3C)C2)nc(C(F)(F)F)n1` [Example 67, 2-(1-(6-(5-ethyl-3-methyl-1H-1,2,4-triazol-1-yl)-2-(trifluoromethyl)pyrimidin-4-yl)azetidin-3-yl)-1-methyl-1H-benzo[d]imidazole], with 0.28 nM.
As to `COc1nc(N2CC(c3nc4ccccc4n3C)C2)cc(-n2nc(C)nc2C2CC2)n1` [Example 63, 2-(1-(6-(5-cyclopropyl-3-methyl-1H-1,2,4-triazol-1-yl)-2-methoxypyrimidin-4-yl)azetidin-3-yl)-1-methyl-1H-benzo[d]imidazole], the Ki worked out at 1.8 nM.
With `COc1nc(N2CC(c3nc4ccccc4n3C)C2)cc(-n2cc(C)cn2)n1` [Example 4, 2-(1-(2-methoxy-6-(4-methyl-1H-pyrazol-1-yl)pyrimidin-4-yl)azetidin-3-yl)-1-methyl-1H-benzo[d]imidazole], the Ki worked out at 0.82 nM.
As to `Cc1nc(N2CC(c3nc4ccccc4n3C)C2)cc(-n2nc(C)nc2-c2c(F)cccc2F)n1` [Example 56, 2-(1-(6-(5-(2,6-difluorophenyl)-3-methyl-1H-1,2,4-triazol-1-yl)-2-methylpyrimidin-4-yl)azetidin-3-yl)-1-methyl-1H-benzo[d]imidazole], the Ki came to 0.24 nM.
As for `Cc1ccc(-c2cc(N3CC(c4nc5ccccc5n4C)C3)nc(C)n2)nc1` [Example 94, 1-methyl-2-(1-(2-methyl-6-(5-methylpyridin-2-yl)pyrimidin-4-yl)azetidin-3-yl)-1H-benzo[d]imidazole], the Ki was 1 nM.
`Cc1nc(C)n(-c2cc(N3CC(c4nc5ccccc5n4C)C3)nc(C(F)(F)F)n2)n1` [Example 60, 2-{1-[6-(3,5-dimethyl-1H-1,2,4-triazol-1-yl)-2-(trifluoromethyl)pyrimidin-4-yl]azetidin-3-yl}-1-methyl-1H-benzimidazole]: the Ki stood at 1.1 nM.
As to `CCOC(=O)Cc1nc(C)nn1-c1cc(N2CC(c3nc4ccccc4n3C)C2)nc(C)n1` [Example 44, ethyl 2-(3-methyl-1-(2-methyl-6-(3-(1-methyl-1 benzo[d]imidazol-2-yl)azetidin-1-yl)pyrimidin-4-yl)-1H-1,2,4-triazol-5-yl)acetate], the Ki turned out to be 2.6 nM.
In the case of `COc1nc(C)ccc1-c1cc(N2CC(c3nc4ccccc4n3C)C2)nc(C)n1` [Example 84, 2-(1-(6-(2-methoxy-6-methylpyridin-3-yl)-2-methylpyrimidin-4-yl)azetidin-3-yl)-1-methyl-1H-benzo[d]imidazole], the Ki amounted to 27 nM.
Take `COCCc1nc(C)nn1-c1cc(N2CC(c3nc4ccccc4n3C)C2)nc(C)n1` [Example 42, 2-(1-(6-(5-(2-methoxyethyl)-3-methyl-1H-1,2,4-triazol-1-yl)-2-methylpyrimidin-4-yl)azetidin-3-yl)-1-methyl-1H-benzo[d]imidazole]: the Ki was 1.9 nM.
For `CCn1c(C2CN(c3cc(-n4nc(C)nc4C)nc(C)n3)C2)nc2ccccc21` [Example 114, 2-(1-(6-(3,5-Dimethyl-1H-1,2,4-triazol-1-yl)-2-methylpyrimidin-4-yl)azetidin-3-yl)-1-ethyl-1H-benzo[d]imidazole], the Ki amounted to 5.9 nM.
With `Cc1nc(N2CC(c3nc4ccccc4n3C)C2)cc(-n2cc(C)c(C)n2)n1` [Example 8, 2-(1-(6-(3,4-dimethyl-1H-pyrazol-1-yl)-2-methylpyrimidin-4-yl)azetidin-3-yl)-1-methyl-1H-benzo[d]imidazole], the Ki turned out to be 0.63 nM.
With `Cc1nc(C2CC2)n(-c2cc(N3CC(c4nc5ccccc5n4C)C3)nc(C(F)(F)F)n2)n1` [Example 68, 2-(1-(6-(5-cyclopropyl-3-methyl-1H-1,2,4-triazol-1-yl)-2-(trifluoromethyl)pyrimidin-4-yl)azetidin-3-yl)-1-methyl-1H-benzo[d]imidazole], the Ki was determined as 1.4 nM.
Take `CCOCCn1c(C2CN(c3cc(-n4nc(C)nc4C)nc(C)n3)C2)nc2ccccc21` [Example 120, 2-(1-(6-(3,5-dimethyl-1H-1,2,4-triazol-1-yl)-2-methylpyrimidin-4-yl)azetidin-3-yl)-1-(2-ethoxyethyl)-1H-benzo[d]imidazole]: the Ki is 8.5 nM.
Take `Cc1nc(N2CC(c3nc4ccccc4n3C)C2)cc(-n2nc(C)nc2Cc2cc(F)ccc2F)n1` [Example 57, 2-(1-(6-(5-(2,5-difluorobenzyl)-3-methyl-1H-1,2,4-triazol-1-yl)-2-methylpyrimidin-4-yl)azetidin-3-yl)-1-methyl-1H-benzo[d]imidazole]: the Ki was found to be 0.065 nM.
Then `Cc1nc(C)n(-c2cc(N3CC(c4nc5ccccc5n4C)C3)nc(C3CC3)n2)n1` [Example 61, 2-{1-[2-cyclopropyl-6-(3,5-dimethyl-1H-1,2,4-triazol-1-yl)pyrimidin-4-yl]azetidin-3-yl}-1-methyl-1H-benzimidazole], with 0.46 nM; and `Cc1cccc(-c2cc(N3CC(c4nc5ccccc5n4C)C3)nc(C)n2)n1` [Example 98, 1-methyl-2-(1-(2-methyl-6-(6-methylpyridin-2-yl)pyrimidin-4-yl)azetidin-3-yl)-1H-benzo[d]imidazole], with 5.5 nM; and `COc1ncccc1-c1cc(N2CC(c3nc4ccccc4n3C)C2)nc(C)n1` [Example 82, 2-(1-(6-(2-methoxypyridin-3-yl)-2-methylpyrimidin-4-yl)azetidin-3-yl)-1-methyl-1H-benzo[d]imidazole], with 27 nM.
As to `Cc1cnn(-c2cc(N3CC(c4nc5ccccc5n4C)C3)nc(C(F)(F)F)n2)c1` [Example 5, 1-methyl-2-(1-(6-(4-methyl-1H-pyrazol-1-yl)-2-(trifluoromethyl)pyrimidin-4-yl)azetidin-3-yl)-1H-benzo[d]imidazole], the Ki was determined as 1.2 nM.
The result for `Cc1nc(C)n(-c2cc(N3CC(c4nc5ccccc5n4C)C3)nc(OCc3ccno3)n2)n1` [Example 71, 5-(((4-(3,5-dimethyl-1H-1,2,4-triazol-1-yl)-6-(3-(1-methyl-1H-benzo[d]imidazol-2-yl)azetidin-1-yl)pyrimidin-2-yl)oxy)methyl)isoxazole] reads 0.4 nM; that for `Cc1nc(N2CC(c3nc4ccccc4n3CCC#N)C2)cc(-n2nc(C)nc2C)n1` [Example 119, 3-(2-(1-(6-(3,5-dimethyl-1H-1,2,4-triazol-1-yl)-2-methylpyrimidin-4-yl)azetidin-3-yl)-1H-benzo[d]imidazol-1-yl)propanenitrile], 5 nM.
